Data as given in patent publication US6177437A, “Inhibitors of Herpes Simplex virus uracil-DNA glycosylase” (University of Massachusetts Medical Center, priority 1999, dated 2001).
Where two headings read alike, the source gives them in different places. One block for each compound: values may come before it.

Tests used:
[1] = molecular target: T1, HSV1 uracil-DNA glycosylase (HSV1 UDG) (Human herpesvirus 1, UniProt P10186); conditions: cited from earlier work
T1 construct: made in house

[2] = Solubility observations (assay medium, water); type: physicochemical
[3] = molecular target: T1, HSV1 uracil-DNA glycosylase (HSV1 UDG); experiment: Inhibition of HSV1 uracil-DNA glycosylase, [3H]uracil release from [3H]dUMP-containing DNA; type: biochemical; conditions: for Potency against HSV1 UDG relative to parent compound: hexAU derivatives vs 4, octAU derivatives vs 5; for Activity against viral UDG: at 200 μM
Procedure: (§1) Compounds 2-8 were screened against purified HSV1 and human (HeLa) uracil-DNA glycosylases which were isolated by conventional enzyme purification protocols^1. Assays for inhibition by the compounds were conducted as described in the literature^1 by measuring [^3 H]uracil release from [^3 H]dUMP-containing DNA, in the presence of varying concentrations of test compounds. Control assays contained the same concentration of diluent, dimethylsulfoxide. IC50 s (the concentration of compound that causes half-maximal inhibition of [^3 H]uracil release from [^3 H]dUMP-containing DNA) for each of the compounds were calculated.
(§2) a. Isolation and assay of uracil-DNA glycosylases. The viral and human (HeLa) uracil-DNA glycosylases are isolated with conventional enzyme purification protocols (Focher et al., 1993). Both long and short forms of the HSV1 enzyme have been cloned and expressed in E. Coli (Argnani et al., 1995), and have essentially identical enzymatic properties and inhibitor sensitivities. Assays for new inhibitors of viral and human UDG are done as described (Focher et al., 1993) by measuring [^3 H]uracil release from [^3 H]dUMP-DNA. Mechanism studies involve classical variable substrate assays to determine if inhibition is competitive with substrate or product.

[4] = molecular target: T2, human (HeLa) uracil-DNA glycosylase (Homo sapiens, UniProt P13051); conditions: cited from earlier work; for IC50: compounds 4 and 5, from Focher et al., 1993, read-out: IC50 Human-UDG
T2 construct: The viral and human (HeLa) uracil-DNA glycosylases are isolated with conventional enzyme purification protocols; endogenous in cells; host or cells: HeLa

[5] = molecular target: T2, human (HeLa) uracil-DNA glycosylase; experiment: Inhibition of human (HeLa) uracil-DNA glycosylase, [3H]uracil release from [3H]dUMP-containing DNA; type: biochemical; conditions: Table 3; read-out: IC50 Human-UDG
Procedure: as §1, §2

[6] = Table 1, from literature (footnote a), read-out: IC50
[7] = compounds 4 and 5, from Focher et al., 1993, read-out: IC50 HSV1-UDG
[8] = Table 3, read-out: IC50 HSV1-UDG
[9] = Table 2, read-out: IC50, experimental value

T2 sequence (P13051 whole entry): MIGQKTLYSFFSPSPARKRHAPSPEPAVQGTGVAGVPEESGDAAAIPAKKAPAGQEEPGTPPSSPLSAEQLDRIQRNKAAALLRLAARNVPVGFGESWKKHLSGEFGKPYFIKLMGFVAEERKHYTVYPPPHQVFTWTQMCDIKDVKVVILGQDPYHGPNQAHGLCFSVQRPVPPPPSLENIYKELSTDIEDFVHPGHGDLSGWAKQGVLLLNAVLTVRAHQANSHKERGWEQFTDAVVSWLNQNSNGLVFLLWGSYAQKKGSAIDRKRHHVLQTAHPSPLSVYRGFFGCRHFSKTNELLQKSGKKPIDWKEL
T1 sequence (P10186 whole entry): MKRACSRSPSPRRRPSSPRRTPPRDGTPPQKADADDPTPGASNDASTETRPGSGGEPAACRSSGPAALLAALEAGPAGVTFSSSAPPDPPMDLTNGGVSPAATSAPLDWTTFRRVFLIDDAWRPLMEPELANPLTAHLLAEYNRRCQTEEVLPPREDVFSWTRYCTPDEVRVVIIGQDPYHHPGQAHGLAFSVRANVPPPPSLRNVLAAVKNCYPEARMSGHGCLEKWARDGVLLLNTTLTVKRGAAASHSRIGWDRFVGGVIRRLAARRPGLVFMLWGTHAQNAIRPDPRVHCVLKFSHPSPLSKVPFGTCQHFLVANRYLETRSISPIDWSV

Compound: CCCCCCCCc1ccc(Nc2cc(=O)[nH]c(=O)[nH]2)cc1 [Compound 5, 6-(4-n-octylanilino)uracil]
IC50 [1, 6]: 8 µM
IC50 [1, 7]: 8 µM
Water solubility [2]: poor water solubility
Mode of inhibition of HSV1 UDG [3]: competitive with DNA
IC50 [4]: > 300 µM

Compound: CCCCCCc1ccc(Nc2[nH]c(=O)[nH]c(=O)c2C)cc1 [(4-n-hexylanilino)thymine, 6-(4-Hexylanilino)thymine]
Activity against viral UDG [3]: inactive

Compound: O=c1cc[nH]c(=O)[nH]1 [uracil]
Mode of inhibition of human UDG ([4]; reported (Griffiths 1995)): non-competitive

Compound: CCc1ccc(Nc2cc(O)nc(O)n2)cc1 [Compound 2]
IC50 [1, 6]: 500 µM

Compound: CCCCCCc1ccc(Nc2cc(O)nc(O)n2)cc1 [Compound 4, 6-(4-n-Hexylanilino)uracil]
IC50 [1, 6]: 30 µM
IC50 [1, 7]: 30 µM
IC50 [4]: > 300 µM

Compound: CCCCCCc1ccc(Nc2cc(=O)n(CC)c(=O)[nH]2)cc1 [3-ethyl-6-(4-n-hexylanilino)uracil]
Activity against viral UDG [3]: inactive

Compound: CCCCCCCCCCc1ccc(Nc2cc(O)nc(O)n2)cc1 [Compound 6, 6-(4-Decylanilino)uracil]
IC50 [3, 9]: 35 µM
IC50 [5]: > 200 µM

Compound: Nc1cc(=O)[nH]c(=O)[nH]1 [6-Aminouracil, reference compound]
IC50 ([3]; text b184, read-out: IC50 HSV1 UDG): 1000 µM
Inhibition of human UDG ([4]; reported (Caradonna et al, 1981)): inhibit weakly

The next lines start with the values.

IC50 [5]: > 200 µM
Compound: CCCCCCc1ccc(Nc2cc(=O)[nH]c(=O)n2CC)cc1 [Compound 17, 1-Ethyl-6-(4-hexylanilino)uracil]

IC50 [3, 8]: > 100 µM
Compound: CCCCCCc1ccc(Nc2cc(=O)[nH]c(=O)n2CCCOC)cc1 [Compound 20, 1-(3-Methoxypropyl)-6-(4-hexylanilino)uracil]

IC50 [3, 8]: > 100 µM
Compound: CCCCCCc1ccc(Nc2cc(=O)[nH]c(=O)n2CCOC)cc1 [Compound 19, 1-(2-Methoxyethyl)-6-(4-hexylanilino)uracil]

IC50 [5]: > 200 µM
Compound: CCCCCCc1ccc(Nc2cc(=O)[nH]c(=O)n2CCC)cc1 [Compound 18, 1-Propyl-6-(4-hexylanilino)uracil]

IC50 [3, 8]: 20 µM
Potency against HSV1 UDG relative to parent compound [3]: equipotent with 4
Compound: CCCCCCc1ccc(Nc2cc(=O)[nH]c(=O)n2CCO)cc1 [Compound 21, 1-(2-Hydroxyethyl)-6-(4-hexylanilino)uracil]

IC50 [3, 9]: 25 µM
Compound: CCCCCCCCOc1ccc(Nc2cc(O)nc(O)n2)cc1 [Compound 8, 6-(4-Octyloxyanilino)uracil]

IC50 ([3]; read-out: IC50, experimental value): 150 µM
IC50 [5]: > 300 µM
Compound: CCCCCCCCc1ccc(Oc2cc(=O)[nH]c(=O)[nH]2)cc1 [Compound 9, 6-(4-Octylphenoxy)uracil]

Potency against HSV1 UDG, fold weaker than 4 [3]: 3 fold
IC50 ([3]; read-out: IC50 HSV1-UDG): 90 µM
Compound: CCCCCCc1ccc(Nc2cc(=O)[nH]c(=O)n2CCCO)cc1 [Compound 22, 1-(3-Hydroxypropyl)-6-(4-hexylanilino)uracil]

IC50 [5]: > 200 µM
Compound: CCCCCCc1ccc(Nc2cc(=O)[nH]c(=O)n2C)cc1 [Compound 16, 1-Methyl-6-(4-hexylanilino)uracil]

IC50 [3, 8]: 10 µM
Potency against HSV1 UDG relative to parent compound [3]: as a potent an inhibitor as 5
Compound: CCCCCCCCc1ccc(Nc2cc(=O)[nH]c(=O)n2CCO)cc1 [Compound 25, 1-(2-Hydroxyethyl)-6-(4-octylanilino)uracil]

IC50 [3, 9]: 30 µM
Compound: CCCCCCOc1ccc(Nc2cc(O)nc(O)n2)cc1 [Compound 7, 6-(4-Hexyloxyanilino)uracil]

IC50 [3, 8]: 15 µM
Potency against HSV1 UDG relative to parent compound [3]: nearly as potent
Compound: CCCCCCCCc1ccc(Nc2cc(=O)[nH]c(=O)n2CCOC)cc1 [Compound 24, 1-(2-Methoxyethyl)-6-(4-octylanilino)uracil]
